Measurements as given in patent US9718828B2 (MERCK SHARP & DOHME CORP., priority 2011, dated 2017).
Counter-ions that a name gives are not always drawn. Like-named read-outs stand apart in the source and are kept apart here.

Molecular target: hBTK (full-length BTK, 6HIS-tag cleaved) (Homo sapiens (Human), UniProt Q06187)
Experiment: BTK enzymatic activity, LANCE TR-FRET assay (Assay Method C)
Assay type: biochemical
Conditions: 50 pM hBTK, 25 μM ATP
[1] = LANCE TR-FRET, class 100-1000 is given as ≧100 nM-<1 μM, read-out: IC50 Btk activity values - Assay Method C

Chain of hBTK (full-length BTK, 6HIS-tag cleaved) (Q06187 whole entry): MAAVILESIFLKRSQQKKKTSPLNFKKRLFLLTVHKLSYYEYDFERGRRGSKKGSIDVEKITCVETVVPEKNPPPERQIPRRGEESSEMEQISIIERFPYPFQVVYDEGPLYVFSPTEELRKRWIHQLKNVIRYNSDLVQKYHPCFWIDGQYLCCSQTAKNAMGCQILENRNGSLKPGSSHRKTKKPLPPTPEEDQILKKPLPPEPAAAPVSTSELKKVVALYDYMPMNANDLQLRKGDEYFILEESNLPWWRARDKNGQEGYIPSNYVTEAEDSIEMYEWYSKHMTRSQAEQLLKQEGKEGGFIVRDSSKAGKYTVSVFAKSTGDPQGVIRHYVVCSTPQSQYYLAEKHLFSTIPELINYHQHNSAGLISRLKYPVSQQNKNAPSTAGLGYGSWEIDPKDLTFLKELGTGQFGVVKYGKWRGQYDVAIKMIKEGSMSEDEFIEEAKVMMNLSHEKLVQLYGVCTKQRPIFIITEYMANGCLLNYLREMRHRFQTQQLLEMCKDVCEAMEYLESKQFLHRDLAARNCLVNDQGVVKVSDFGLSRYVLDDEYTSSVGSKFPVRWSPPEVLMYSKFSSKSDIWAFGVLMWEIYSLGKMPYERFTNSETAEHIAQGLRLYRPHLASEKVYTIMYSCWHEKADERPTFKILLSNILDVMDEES

Nc1nccn2c([C@H]3CN(C4COC4)CCO3)nc(-c3ccc(C(=O)Nc4cc(C(F)(F)F)ccn4)cc3)c12 [Example 550, 4-{8-amino-3-[(2R)-4-oxetan-3-ylmorpholin-2-yl]imidazo[1,5-a]pyrazin-1-yl}-N-[4-(trifluoromethyl)pyridin-2-yl]benzamide, TFA salt]
IC50 [1]: < 10 nM

COc1ccnc(NC(=O)c2ccc(-c3nc([C@@H]4CCCN(C(=O)C5(C)COC5)C4)n4ccnc(N)c34)cc2)n1 [Example 361, 4-(8-amino-3-{(3R)-1-[(3-methyloxetan-3-yl)carbonyl]piperidin-3-yl}imidazo[1,5-a]pyrazin-1-yl)-N-(4-methoxypyrimidin-2-yl)benzamide]
IC50 [1]: 100 to 1000 nM

Cc1noc(C)c1C(=O)N1CCC[C@@H](c2nc(-c3ccc(C(=O)Nc4cc(C(F)(F)F)ccn4)cc3)c3c(N)nccn23)C1 [Example 328]
IC50 [1]: < 10 nM

COCc1cnc(N)c2c(-c3ccc(C(=O)Nc4cc(C(F)(F)F)ccn4)cc3F)nc([C@@H]3CCCN(C(=O)C4(C)COC4)C3)n12 [Example 451, 4-[8-amino-5-(methoxymethyl)-3-{(3R)-1-[(3-methyloxetan-3-yl)carbonyl]piperidin-3-yl}imidazo[1,5-a]pyrazin-1-yl]-3-fluoro-N-[4-(trifluoromethyl)pyridin-2-yl]benzamide]
IC50 [1]: < 10 nM

CN1C[C@@H](c2nc(-c3ccc(C(=O)Nc4cc(C(F)(F)F)ccn4)cc3F)c3c(N)nccn23)CC[C@@H]1C(F)(F)F [Example 411, 4-{8-amino-3-[(3S,6R)-1-methyl-6-(trifluoromethyl)piperidin-3-yl]imidazo[1,5-a]pyrazin-1-yl}-3-fluoro-N-[4-(trifluoromethyl)pyridin-2-yl]benzamide]
IC50 [1]: < 10 nM

Cc1ccnc(NC(=O)c2ccc(-c3nc([C@@H]4CCCN(C(=O)C5(C)COC5)C4)n4ccnc(N)c34)cc2)c1 [Example 352, 4-(8-amino-3-{(3R)-1-[(3-methyloxetan-3-yl)carbonyl]piperidin-3-yl}imidazo[1,5-a]pyrazin-1-yl)-N-(4-methylpyridin-2-yl)benzamide]
IC50 [1]: < 10 nM

CCc1ccnc(NC(=O)c2ccc(-c3nc([C@@H]4CCCN(C(=O)C5(C)COC5)C4)n4c(C)cnc(N)c34)cc2)c1 [Example 455, 4-(8-amino-5-methyl-3-{(3R)-1-[(3-methyloxetan-3-yl)carbonyl]piperidin-3-yl}imidazo[1,5-a]pyrazin-1-yl)-N-(4-ethylpyridin-2-yl)benzamide]
IC50 [1]: < 10 nM

Nc1ncc(Cl)n2c([C@@H]3CCCN(C=O)C3)nc(-c3ccc(C(=O)Nc4cc(C(F)(F)F)ccn4)cc3)c12 [Example 443, 4-{8-amino-5-chloro-3-[(3R)-1-formylpiperidin-3-yl]imidazo[1,5-a]pyrazin-1-yl}-N-[4-(trifluoromethyl)pyridin-2-yl]benzamide]
IC50 [1]: < 10 nM

CC1(C(=O)N2CCC[C@@H](c3nc(-c4ccc(C(=O)Nc5cccnn5)cc4)c4c(N)nccn34)C2)COC1 [Example 357, 4-(8-amino-3-{(3R)-1-[(3-methyloxetan-3-yl)carbonyl]piperidin-3-yl}imidazo[1,5-a]pyrazin-1-yl)-N-pyridazin-3-ylbenzamide]
IC50 [1]: 100 to 1000 nM

C[C@H]1CO[C@@H](c2nc(-c3ccc(C(=O)Nc4cc(C(F)(F)F)ccn4)cc3)c3c(N)nccn23)CN1C(=O)C1CC1 [Example 516, 4-{8-amino-3-[(2R,5S)-4-(cyclopropylcarbonyl)-5-methylmorpholin-2-yl]imidazo[1,5-a]pyrazin-1-yl}-N-[4-(trifluoromethyl)pyridin-2-yl]benzamide, TFA salt]
IC50 [1]: < 10 nM

CCN1CCO[C@@H](c2nc(-c3ccc(C(=O)Nc4cc(C(F)(F)F)ccn4)cc3)c3c(N)ncc(Cl)n23)C1 [Example 522, 4-{8-amino-5-chloro-3-[(2R)-4-ethylmorpholin-2-yl]imidazo[1,5-a]pyrazin-1-yl}-N-[4-(trifluoromethyl)pyridin-2-yl]benzamide]
IC50 [1]: < 10 nM

Cc1cc(NC(=O)c2ccc(-c3nc([C@@H]4CCCN(C(=O)C5(C)COC5)C4)n4ccnc(N)c34)cc2)no1 [Example 353, 4-(8-amino-3-{(3R)-1-[(3-methyloxetan-3-yl)carbonyl]piperidin-3-yl}imidazo[1,5-a]pyrazin-1-yl)-N-(5-methylisoxazol-3-yl)benzamide]
IC50 [1]: 100 to 1000 nM

C[C@@H](O)c1cnc(N)c2c(-c3ccc(C(=O)Nc4cc(C(F)(F)F)ccn4)cc3)nc([C@@H]3CCCN(C(=O)C4(C)COC4)C3)n12 [Example 465, 4-(8-amino-5-[(1R)-1-hydroxyethyl]-3-{(3R)-1-[(3-methyloxetan-3-yl)carbonyl]piperidin-3-yl}imidazo[1,5-a]pyrazin-1-yl)-N-[4-(trifluoromethyl)pyridin-2-yl]benzamide]
IC50 [1]: < 10 nM

Cc1cnc(N)c2c(-c3ccc(C(=O)Nc4cc(OC5CC5)ccn4)cc3)nc([C@@H]3CCCN(C(=O)C4(C)COC4)C3)n12 [Example 456, 4-(8-amino-5-methyl-3-{(3R)-1-[(3-methyloxetan-3-yl)carbonyl]piperidin-3-yl}imidazo[1,5-a]pyrazin-1-yl)-N-[4-(cyclopropyloxy)pyridin-2-yl]benzamide]
IC50 [1]: < 10 nM | IC50 (Table D, Assay Method C (LANCE TR-FRET), read-out: IC50 BTK activity value): 0.403 nM

N#CCN1CCO[C@@H](c2nc(-c3ccc(C(=O)Nc4cc(C(F)(F)F)ccn4)cc3)c3c(N)nccn23)C1 [Example 531, 4-{8-amino-3-[(2R)-4-(cyanomethyl)morpholin-2-yl]imidazo[1,5-a]pyrazin-1-yl}-N-[4-(trifluoromethyl)pyridin-2-yl]benzamide]
IC50 [1]: < 10 nM

CC1(C(=O)N2CCC[C@@H](c3nc(-c4ccc(C(=O)Nc5cc(C(F)(F)F)ccn5)cc4)c4c(N)ncc(C=O)n34)C2)COC1 [Example 464, 4-(8-amino-5-formyl-3-{(3R)-1-[(3-methyloxetan-3-yl)carbonyl]piperidin-3-yl}imidazo[1,5-a]pyrazin-1-yl)-N-[4-(trifluoromethyl)pyridin-2-yl]benzamide]
IC50 [1]: 10 to 100 nM

CC1(C(=O)N2CCC[C@@H](c3nc(-c4ccc(C(=O)Nc5ccc(F)cn5)cc4)c4c(N)nccn34)C2)COC1 [Example 351, 4-(8-amino-3-{(3R)-1-[(3-methyloxetan-3-yl)carbonyl]piperidin-3-yl}imidazo[1,5-a]pyrazin-1-yl)-N-(5-fluoropyridin-2-yl)benzamide]
IC50 [1]: 10 to 100 nM

CC(=O)N1C[C@H](c2nc(-c3ccc(C(=O)Nc4cc(C(F)F)ccn4)cc3F)c3c(N)nccn23)CC[C@@H]1C [Example 435, 4-{3-[(3R,6S)-1-acetyl-6-methylpiperidin-3-yl]-8-aminoimidazo[1,5-a]pyrazin-1-yl}-N-[4-(difluoromethyl)pyridin-2-yl]-3-fluorobenzamide]
IC50 [1]: < 10 nM

Nc1ncnc2c1c(-c1ccc(C(=O)Nc3cc(C(F)(F)F)ccn3)cc1)nn2[C@@H]1CCCc2nn(CCO)cc21 [Example 562, 4-{4-amino-1-[(4R)-2-(2-hydroxyethyl)-4,5,6,7-tetrahydro-2H-indazol-4-yl]-1H-pyrazolo[3,4-d]pyrimidin-3-yl}-N-[4-(trifluoromethyl)pyridin-2-yl]benzamide, TFA salt]
IC50 [1]: < 10 nM

CCOCC(=O)N1CCC[C@@H](c2nc(-c3ccc(C(=O)Nc4cc(C(F)(F)F)ccn4)cc3)c3c(N)nccn23)C1 [Example 339, 4-{8-amino-3-[(3R)-1-(ethoxyacetyl)piperidin-3-yl]imidazo[1,5-a]pyrazin-1-yl}-N-[4-(trifluoromethyl)pyridin-2-yl]benzamide]
IC50 [1]: < 10 nM
